Tests used:
Type in all cases: cell-based
pEGFR = experiment: Western blot of pEGFR in renal cancer cell lines; conditions: A498, 769-P, RENCA, ACHN; one-hour pre-treatment, 10-minute EGF stimulation
Text: (§1) Whole cell lysates in 1× sample buffer (Invitrogen) were electrophoresed on a 4%-12% Bis-Tris gel. After transferring the proteins onto a PVDF membrane, the blot was probed by antibodies, and the signal was detected using the Odyssey imager (LI-COR Biosciences). Paired mouse and rabbit antibodies were used to probe the total protein, and the corresponding phosphorylated proteins. The effect of ibrutinib treatment, with and without EGF stimulation/induction, on various proteins was studied. A one-hour pre-treatment with ibrutinib and a 10-minute stimulation with EGF was conducted. […] As such, ibrutinib ameliorates the effect (i.e., the undesired effects) of mTOR inhibitor alone.

pAkt = experiment: Western blot of pAkt in renal cancer cell lines
Text: as §1
(§2) Cell lysates were prepared from RCC cells which were treated with different concentrations of pazopanib for overnight incubation. Antibodies that correlate to the proteins of interest were used for detection.

pERK = experiment: Western blot of pERK in renal cancer cell lines; conditions: A498, 769-P, RENCA, ACHN; one-hour pre-treatment, 10-minute EGF stimulation
Text: as §1, §2

Compound | EGF-induced pEGFR (pEGFR) | pAkt (pAkt; A498, 769-P, RENCA, ACHN, one-hour pre-treatment, 10-minute EGF stimulation) | pERK (pERK) | pAkt (both pAkt T308 and pAkt S473) (pAkt; ACHN cell line, 24 h treatment, FIG. 8)
C=CC(=O)N1CCC[C@@H](n2nc(-c3ccc(Oc4ccccc4)cc3)c3c(N)ncnc32)C1 [ibrutinib, 1-((R)-3-(4-amino-3-(4-phenoxyphenyl)-1H-pyrazolo[3,4-d]pyrimidin-1-yl)piperidin-1-yl)prop-2-en-1-one] | inhibits EGF-induced pEGFR | limited impacts | limited impacts | 
CO[C@H]1C[C@@H]2CC[C@@H](C)[C@@](O)(O2)C(=O)C(=O)N2CCCC[C@H]2C(=O)O[C@H]([C@H](C)C[C@@H]2CC[C@@H](OCCO)[C@H](OC)C2)CC(=O)[C@H](C)/C=C(\C)[C@@H](O)[C@@H](OC)C(=O)[C@H](C)C[C@H](C)/C=C/C=C/C=C/1C [everolimus] |  |  |  | induced up-regulation of pAkt

Reference: patent US20170027941A1, “Bruton's Tyrosine Kinase Inhibitor Combinations and Uses Thereof” (Pharmacyclics LLC, priority 2015, published 2017)
